Results on 23 compounds are retold here after patent US10501479B2, “Benzenesulfonyl-asymmetric ureas and medical uses thereof” (HELSINN HEALTHCARE SA, priority 2016, dated 2019).

Assay type in all cases: cell-based
Experiment [1] has as its target T1, recombinant human ghrelin receptor (HEK293/GRLN) (Homo sapiens, UniProt Q92847).
T1 construct: expressed in transfected cells
The experiment in a line: Ghrelin inverse agonist potency (EC50) with IP-1 (IP-One HTRF) assay. Conditions: IP-1 assay. In a few lines:
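IP-1 accumulation was measured by HTRF (IP1-d2/Tb-cryptate, 620/665 nm read after 1 hour at room temperature) following 1 hour of compound treatment at 37° C. Cells were HEK293 stably expressing human ghrelin receptor, plated a day earlier on Matrigel. Inverse agonist potency was reported as EC50.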

The target in experiment [2] is T2, GHSR-1a (HEK293/GHSR1a cell line) (Homo sapiens, UniProt Q92847).
T2 construct: expressed in transfected cells; host or cells: HEK293/GHSR1a cell line
T2 sequence (Q92847 whole entry): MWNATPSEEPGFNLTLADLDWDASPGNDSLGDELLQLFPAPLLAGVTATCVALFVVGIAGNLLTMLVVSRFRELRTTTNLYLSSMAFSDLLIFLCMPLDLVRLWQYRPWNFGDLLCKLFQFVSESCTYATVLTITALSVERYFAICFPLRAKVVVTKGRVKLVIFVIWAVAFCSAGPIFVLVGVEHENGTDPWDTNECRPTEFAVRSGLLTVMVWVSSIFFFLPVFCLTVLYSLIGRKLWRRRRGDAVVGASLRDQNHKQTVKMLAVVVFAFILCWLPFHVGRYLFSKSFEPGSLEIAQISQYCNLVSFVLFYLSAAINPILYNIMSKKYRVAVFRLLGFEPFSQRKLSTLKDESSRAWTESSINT
Description: Ghrelin antagonist potency (IC50) with calcium FLIPR assay, ghrelin 10 nM. The method in brief:
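In this assay, compound alone assesses agonism, while compound co-added with ghrelin at 10 nM assesses antagonism. In both modes the calcium-dye signal is tracked for 2 min from t=20 sec.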

In experiment [3] the target is T2, GHSR-1a (HEK293/GHSR1a cell line). The experiment in a line: Ghrelin agonist potency (EC50) with calcium FLIPR assay. Here is the method:
Evaluation of Ghrelin Agonist (EC50) and Antagonist Potency (IC50) with Calcium FLIPR Assay:
The intracellular calcium assay was carried out in a 384-well format FLIPR™ (Molecular Device) HEK293/GHSR1a cell line. Cells were seeded 24 hr prior to the experiments at an optimal density per well. Preincubation with selected calcium dye lasted for 30-60 min at room temperature or 37° C. Test compounds, dissolved in DMSO, were added at the appropriate time and incubated for 15 min followed by the addition of ghrelin with FlexStation or FLIPR. Relative fluorescence was monitored by the FLIPR™ Molecular Device. EC50 and IC50 values were estimated from dose-response data using GraphPad Prism software. To check for GHSR-1a agonism, the compound was added at t=20 sec. and the calcium response was followed for 2 minutes. To check for GHSR-1a antagonism, the compound and Ghrelin (10 nM) were added to the cells at t=20 sec. and the calcium response was measured for 2 minutes. The potency of the antagonist was calculated by its ability to reduce the ghrelin response. Dose-response curves were made for relevant antagonists.

Setting [4] is: HEK293/GRLN, read-out: Activity EC50 (ghrelin inverse agonist potency).
Setting [5] is: HEK293/GHSR1a, ghrelin 10 nM, read-out: Activity IC50 (ghrelin antagonist potency).
Where [6] appears, read: HEK293/GHSR1a, read-out: Activity EC50/EMax: EC50 (ghrelin agonist potency).
Setting [7] is: ghrelin inverse agonist potency, read-out: Activity EC50.
The mark [8] stands for this setting: ghrelin antagonist potency, read-out: Activity IC50.
The mark [9] stands for this setting: ghrelin agonist potency, read-out: Activity EC50/EMax.

Each structure is given as a SMILES string. Where two headings read alike, the source gives them in different places. Bounds are passed on as bounds.

In general, IC50 refers to the concentration at which inhibition is half-maximal.

T1 sequence (Q92847 whole entry): as above

With `O=C(NCc1cccnc1)Nc1ccc(S(=O)(=O)Cc2ccc3c(c2)CNC3)cc1` [H1301, 1-(4-((isoindolin-5-ylmethyl)sulfonyl)phenyl)-3-(pyridin-3-ylmethyl)urea], the EC50 in experiment [1] (setting [4]) was 1140 nM; in experiment [3] (setting [6]), more than 30000 nM. Also, the 50% inhibitory concentration (IC50) in experiment [2] (setting [5]) came out at 4450 nM.

For the compound `CC(NC(=O)Nc1ccc(S(=O)(=O)Cc2ccc(CN3CCOCC3)cc2)cc1)c1ccccc1` (stereo not drawn) [H1275, 1-(4-((4-(morpholinomethyl)benzyl)sulfonyl)phenyl)-3-(1-phenylethyl)urea], the EC50 in experiment [1] (setting [4]) was 310 nM; in experiment [3] (setting [6]), more than 30000 nM. Also, the IC50 in experiment [2] (setting [5]) was 1020 nM.

With `CN1Cc2ccc(CS(=O)(=O)c3ccc(NC(=O)N(O)Cc4ccccc4)cc3)cc2C1` [H1503, 1-benzyl-1-hydroxy-3-(4-(((2-methylisoindolin-5-yl)methyl)sulfonyl)phenyl)urea], the EC50 in experiment [1] (setting [7]) was 101 nM; in experiment [3] (setting [9]), more than 30000 nM. Further, the concentration for half-maximal inhibition (IC50) in experiment [2] (setting [8]) is 512 nM.

For the compound `C[C@@H](NC(=O)Nc1ccc(S(=O)(=O)Cc2ccc3c(c2)C(F)CN(C)C3)cc1)c1ccccc1` (stereo partly drawn) [H1539, 1-(4-(((4-fluoro-2-methyl-1,2,3,4-tetrahydroisoquinolin-6-yl)methyl)sulfonyl)phenyl)-3-((R)-1-phenylethyl)urea], the values for the EC50 in experiment [1] (setting [7]) and in experiment [3] (setting [9]) were 263 nM and more than 30000 nM, respectively. The 50% inhibitory concentration (IC50) in experiment [2] (setting [8]) was 8050 nM.

For `CC(NC(=O)Nc1ccc(S(=O)(=O)Cc2ccc3c(c2)CNC3)c(-c2ncco2)c1)c1ccccc1` (stereo not drawn) [H1507, 1-(4-((isoindolin-5-ylmethyl)sulfonyl)-3-(oxazol-2-yl)phenyl)-3-(1-phenylethyl)urea], the results for the EC50 in experiment [1] (setting [7]) and in experiment [3] (setting [9]) were 19.7 nM and more than 30000 nM, respectively. The half-inhibitory concentration (IC50) in experiment [2] (setting [8]) amounted to 12.8 nM.

Regarding `CC(NC(=O)Nc1ccc(S(=O)(=O)Cc2ccc3c(c2)CNC3)cc1)c1cccnc1` (stereo not drawn) [H1273, 1-(4-((isoindolin-5-ylmethyl)sulfonyl)phenyl)-3-(1-(pyridin-3-yl)ethyl)urea], the EC50 is 192 nM in experiment [1] (setting [4]) and more than 30000 nM in experiment [3] (setting [6]). The IC50 in experiment [2] (setting [5]) amounted to 1030 nM.

On to `COc1cc(S(=O)(=O)Cc2nc3c(s2)CNC3)ccc1NC(=O)N[C@@H](C)c1ccccc1` [H1463, (S)-1-(4-(((5,6-dihydro-4H-pyrrolo[3,4-d]thiazol-2-yl)methyl)sulfonyl)-2-methoxyphenyl)-3-(1-phenylethyl)urea], for which the EC50 is 289 nM in experiment [1] (setting [7]) and more than 30000 nM in experiment [3] (setting [9]). In addition, the half-inhibitory concentration (IC50) in experiment [2] (setting [8]) came to 1150 nM.

On to `CC(=O)Oc1ccc(C(C)NC(=O)Nc2ccc(S(=O)(=O)Cc3ccc4c(c3)CNC4)cc2)cc1` (stereo not drawn) [H1310, 4-(1-(3-(4-((isoindolin-5-ylmethyl)sulfonyl)phenyl)ureido)ethyl)phenylacetate], for which the EC50 in experiment [1] (setting [4]) was 184 nM; in experiment [3] (setting [6]), more than 30000 nM. The half-inhibitory concentration (IC50) in experiment [2] (setting [5]) came to 262 nM.

For `COc1cc(S(=O)(=O)Cc2ccc3c(c2)CCN(C)C3)ccc1NC(=O)N[C@H](C)c1ccc(OC)c(Cl)c1Cl` [H1422, (R)-1-(1-(2,3-dichloro-4-methoxyphenyl)ethyl)-3-(2-methoxy-4-(((2-methyl-1,2,3,4-tetrahydroisoquinolin-6-yl)methyl)sulfonyl)phenyl)urea], the EC50 is 0.7 nM in experiment [1] (setting [4]) and more than 30000 nM in experiment [3] (setting [6]). Moreover, in experiment [2] (setting [5]), the concentration for half-maximal inhibition (IC50) is 29.4 nM.

In the case of `C[C@@H](NC(=O)Nc1ccc(S(=O)(=O)Cc2ccc3c(c2)CN(C)C3(C)C)cc1)c1ccccc1` [H1357, (R)-1-(1-phenylethyl)-3-(4-(((1,1,2-trimethylisoindolin-5-yl)methyl)sulfonyl)phenyl)urea], the EC50 in experiment [1] (setting [4]) is 36 nM; in experiment [3] (setting [6]), more than 30000 nM. Besides, the 50% inhibitory concentration (IC50) in experiment [2] (setting [5]) came to 57 nM.

`COc1ccc(C(C)NC(=O)Nc2ccc(S(=O)(=O)Cc3ccc4c(c3)CN(C)C4)cc2)cc1OC` (stereo not drawn) [H1449, 1-(1-(3,4-dimethoxyphenyl)ethyl)-3-(4-(((2-methylisoindolin-5-yl)methyl)sulfonyl)phenyl)urea]: the EC50 in experiment [1] (setting [4]) is 928 nM; in experiment [3] (setting [6]) it was more than 30000 nM. Further, the IC50 in experiment [2] (setting [5]) is 4170 nM.

Turning to `CC(NC(=O)Nc1ccc(S(=O)(=O)CC2=CCC3CCC2N3C(C)C)cc1)c1cccc(Cl)c1Cl` (stereo not drawn) [H1514, 1-(1-(2,3-dichlorophenyl)ethyl)-3-(4-(((8-isopropyl-8-azabicyclo[3.2.1]oct-2-en-2-yl)methyl)sulfonyl)phenyl)urea], the EC50 in experiment [1] (setting [7]) is 17.6 nM; in experiment [3] (setting [9]) it was more than 30000 nM. Also, in experiment [2] (setting [8]), the IC50 came out at 16200 nM.

For the compound `O=C(NCC1COc2ccccc2O1)Nc1ccc(S(=O)(=O)Cc2ccc3c(c2)CNC3)cc1` (stereo not drawn) [H1483, 1-((2,3-dihydrobenzo[b][1,4]dioxin-2-yl)methyl)-3-(4-((isoindolin-5-ylmethyl)sulfonyl)phenyl)urea], the figures for the EC50 in experiment [1] (setting [7]) and in experiment [3] (setting [9]) were 24.1 nM and more than 30000 nM, respectively. For the same compound, the 50% inhibitory concentration (IC50) in experiment [2] (setting [8]) is 53.8 nM.

Turning to `CC(NC(=O)Nc1ccc(S(=O)(=O)Cc2ccc3c(c2)CNC3)cn1)c1ccccc1` (stereo not drawn) [H1408, 1-(5-((isoindolin-5-ylmethyl)sulfonyl)pyridin-2-yl)-3-(1-phenylethyl)urea], the EC50 was 36 nM in experiment [1] (setting [4]) and more than 30000 nM in experiment [3] (setting [6]). For the same compound, the half-maximal inhibitory concentration (IC50) in experiment [2] (setting [5]) came to 162 nM.

Consider `C[C@H](NC(=O)Nc1ccc(S(=O)(=O)Nc2ccc3c(c2)CCN(C)C3)cc1)c1cccc(Cl)c1Cl` [H1352, (S)-4-(3-(1-(2,3-dichlorophenyl)ethyl)ureido)-N-(2-methyl-1,2,3,4-tetrahydroisoquinolin-6-yl)benzenesulfonamide], for which the EC50 in experiment [1] (setting [4]) is 7.7 nM; in experiment [3] (setting [6]), more than 30000 nM. In addition, in experiment [2] (setting [5]), the concentration for half-maximal inhibition (IC50) came to 4.6 nM.

For `CC(NC(=O)Nc1ccc(S(=O)(=O)Cc2ccc3c(c2)CN(C)C3)cc1)c1cc(N2CCOCC2)ccc1Cl` (stereo not drawn) [H1284, 1-(1-(2-chloro-5-morpholinophenyl)ethyl)-3-(4-(((2-methylisoindolin-5-yl)methyl)sulfonyl)phenyl)urea], the results for the EC50 in experiment [1] (setting [4]) and in experiment [3] (setting [6]) were 371 nM and more than 30000 nM, respectively. In addition, the IC50 in experiment [2] (setting [5]) came to 1900 nM.

Take `CC(NC(=O)Nc1ccc(S(=O)(=O)Cc2ccc3c(c2)CN(C)C3)c(-c2ncco2)c1)c1ccccc1` (stereo not drawn) [H1508, 1-(4-(((2-methylisoindolin-5-yl)methyl)sulfonyl)-3-(oxazol-2-yl)phenyl)-3-(1-phenylethyl)urea]: the EC50 in experiment [1] (setting [7]) was 30 nM; in experiment [3] (setting [9]), more than 30000 nM. Besides, the 50% inhibitory concentration (IC50) in experiment [2] (setting [8]) amounted to 61.8 nM.

For the compound `COc1ccc([C@@H](C)NC(=O)Nc2ccc(S(=O)(=O)Cc3ccc4c(c3)CCN(C)C4)cc2F)c(Cl)c1Cl` [H1423, (R)-1-(1-(2,3-dichloro-4-methoxyphenyl)ethyl)-3-(2-fluoro-4-(((2-methyl-1,2,3,4-tetrahydroisoquinolin-6-yl)methyl)sulfonyl)phenyl)urea], the EC50 in experiment [1] (setting [4]) is 3.77 nM; in experiment [3] (setting [6]), more than 30000 nM. Besides, in experiment [2] (setting [5]), the half-inhibitory concentration (IC50) was 114 nM.

In the case of `COc1cc(S(=O)(=O)Cc2ccc(CO)cc2)ccc1NC(=O)NC(C)c1cccc(Cl)c1Cl` (stereo not drawn) [H1434, 1-(1-(2,3-dichlorophenyl)ethyl)-3-(4-((4-(hydroxymethyl)benzyl)sulfonyl)-2-methoxyphenyl)urea], the EC50 was 61.2 nM in experiment [1] (setting [4]) and more than 30000 nM in experiment [3] (setting [6]). Besides, in experiment [2] (setting [5]), the 50% inhibitory concentration (IC50) came out at 857 nM.

In the case of `C[C@H](NC(=O)Nc1ccc(S(=O)(=O)CC2CCNCC2)cc1)c1ccccc1` [H1303, (S)-1-(1-phenylethyl)-3-(4-((piperidin-4-ylmethyl)sulfonyl)phenyl)urea], the EC50 in experiment [1] (setting [4]) and in experiment [3] (setting [6]) was more than 30000 nM in each case. Moreover, the IC50 in experiment [2] (setting [5]) was more than 30000 nM.

On to `CN1Cc2ccc(CS(=O)(=O)c3ccc(NC(=O)N[C@H]4CCCc5ccccc54)cc3)cc2C1` [H1335, (S)-1-(4-(((2-methylisoindolin-5-yl)methyl)sulfonyl)phenyl)-3-(1,2,3,4-tetrahydronaphthalen-1-yl)urea], for which the EC50 was 69.9 nM in experiment [1] (setting [4]) and more than 30000 nM in experiment [3] (setting [6]). In addition, in experiment [2] (setting [5]), the IC50 is 133 nM.

On to `CC(NC(=O)Nc1ccc(S(=O)(=O)Cc2ccc3c(c2)CNC3)cc1-c1cn[nH]c1)c1ccccc1` (stereo not drawn) [H1532, 1-(4-((isoindolin-5-ylmethyl)sulfonyl)-2-(1H-pyrazol-4-yl)phenyl)-3-(1-phenylethyl)urea], for which the EC50 is 69.5 nM in experiment [1] (setting [7]) and more than 30000 nM in experiment [3] (setting [9]). For the same compound, the IC50 in experiment [2] (setting [8]) came to 1660 nM.

With `CC(NC(=O)Nc1ccc(S(=O)(=O)Cc2ccc3c(c2)CNC3)cc1-c1ccnn1C)c1ccccc1` (stereo not drawn) [H1528, 1-(4-((isoindolin-5-ylmethyl)sulfonyl)-2-(1-methyl-1H-pyrazol-5-yl)phenyl)-3-(1-phenylethyl)urea], the EC50 in experiment [1] (setting [7]) is 83.3 nM; in experiment [3] (setting [9]), more than 30000 nM. In experiment [2] (setting [8]), the IC50 worked out at 581 nM.
